Reference: PMC3740522, “Synthesis of the calcilytic ligand NPS 2143” (Beilstein Journal of Organic Chemistry, 2013)

Target: T1, calcium-sensing receptor (CaSR) (Rattus norvegicus, UniProt P48442)
T1 sequence (P48442 20-1079): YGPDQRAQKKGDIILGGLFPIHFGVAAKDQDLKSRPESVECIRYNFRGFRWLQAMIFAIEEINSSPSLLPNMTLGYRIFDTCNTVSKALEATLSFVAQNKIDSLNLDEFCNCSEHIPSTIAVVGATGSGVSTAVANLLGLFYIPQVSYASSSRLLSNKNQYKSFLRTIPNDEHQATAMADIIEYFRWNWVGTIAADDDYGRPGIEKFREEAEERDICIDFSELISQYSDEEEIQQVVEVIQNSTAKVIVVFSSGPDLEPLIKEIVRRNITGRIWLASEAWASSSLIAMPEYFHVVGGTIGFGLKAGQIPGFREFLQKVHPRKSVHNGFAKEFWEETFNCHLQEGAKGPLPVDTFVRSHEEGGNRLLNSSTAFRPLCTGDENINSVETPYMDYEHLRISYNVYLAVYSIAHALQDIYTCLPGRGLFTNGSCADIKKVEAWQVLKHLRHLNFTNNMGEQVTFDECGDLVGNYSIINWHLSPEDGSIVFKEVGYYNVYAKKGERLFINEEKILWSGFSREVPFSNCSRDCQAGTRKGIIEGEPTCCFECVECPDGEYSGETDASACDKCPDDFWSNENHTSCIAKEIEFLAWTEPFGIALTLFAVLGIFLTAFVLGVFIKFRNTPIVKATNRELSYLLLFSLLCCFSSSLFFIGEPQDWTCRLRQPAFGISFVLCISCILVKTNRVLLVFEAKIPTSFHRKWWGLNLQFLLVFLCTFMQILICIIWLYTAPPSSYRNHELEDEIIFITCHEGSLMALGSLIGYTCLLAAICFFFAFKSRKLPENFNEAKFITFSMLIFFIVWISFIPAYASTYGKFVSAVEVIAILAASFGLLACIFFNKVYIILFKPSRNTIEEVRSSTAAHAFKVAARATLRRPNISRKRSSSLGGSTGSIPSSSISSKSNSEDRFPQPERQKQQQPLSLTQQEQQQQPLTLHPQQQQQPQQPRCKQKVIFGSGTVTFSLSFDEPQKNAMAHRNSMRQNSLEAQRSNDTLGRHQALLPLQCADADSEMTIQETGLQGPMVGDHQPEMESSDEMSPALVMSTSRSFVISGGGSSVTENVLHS
Assay: inhibition of calcium-stimulated IP1 accumulation in HEK293 cells stably transfected with rat CaSR
Type: cell-based

CC(C)(Cc1ccc2ccccc2c1)NC[C@@H](O)COc1cccc(Cl)c1C#N [(R)-3, NPS 2143]
IC50: 640 nM
